Measured values taken from patent US11066396B2 (priority 2016, dated 2021).

Tests used:
HDAC1 = HDAC1 (Homo sapiens (Human), UniProt Q13547); conditions: read-out: HDAC1 IC50
HDAC8 = HDAC8 (Homo sapiens (Human), UniProt Q9BY41); conditions: read-out: HDAC8 IC50
HDAC8, sequence (Q9BY41 whole entry): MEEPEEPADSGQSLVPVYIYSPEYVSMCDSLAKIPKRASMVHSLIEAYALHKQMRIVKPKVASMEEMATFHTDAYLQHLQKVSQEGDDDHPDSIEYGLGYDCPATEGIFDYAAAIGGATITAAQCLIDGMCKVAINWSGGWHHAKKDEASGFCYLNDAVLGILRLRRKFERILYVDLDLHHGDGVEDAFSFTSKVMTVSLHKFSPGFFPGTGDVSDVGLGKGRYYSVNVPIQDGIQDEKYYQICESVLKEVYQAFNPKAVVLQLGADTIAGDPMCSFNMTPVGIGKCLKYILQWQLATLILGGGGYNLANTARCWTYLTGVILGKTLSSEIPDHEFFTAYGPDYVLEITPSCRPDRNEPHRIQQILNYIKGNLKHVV

HDAC1, sequence (Q13547 whole entry): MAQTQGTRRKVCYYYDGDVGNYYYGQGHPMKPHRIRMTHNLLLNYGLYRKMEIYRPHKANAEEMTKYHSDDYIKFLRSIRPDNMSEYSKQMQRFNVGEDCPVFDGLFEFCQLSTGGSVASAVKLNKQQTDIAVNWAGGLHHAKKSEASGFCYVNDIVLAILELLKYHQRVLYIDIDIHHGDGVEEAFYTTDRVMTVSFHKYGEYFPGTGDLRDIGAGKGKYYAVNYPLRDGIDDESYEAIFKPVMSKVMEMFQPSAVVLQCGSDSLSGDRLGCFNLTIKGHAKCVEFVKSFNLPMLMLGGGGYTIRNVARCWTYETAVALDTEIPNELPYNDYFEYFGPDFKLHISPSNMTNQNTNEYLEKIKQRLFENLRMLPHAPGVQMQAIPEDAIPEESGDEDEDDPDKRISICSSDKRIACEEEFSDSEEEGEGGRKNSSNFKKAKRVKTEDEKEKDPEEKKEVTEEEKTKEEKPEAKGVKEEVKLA

| SMILES | IC50 (HDAC1) | IC50 (HDAC8) |
| --- | --- | --- |
| FC(F)(F)c1nc(-c2ccc(N3CCOC[C@@H]3c3ccccc3)nc2)no1 [Example 141, (S)-3-phenyl-4-(5-(5-(trifluoromethyl)-1,2,4-oxadiazol-3-yl)pyridin-2-yl)morpholine] | 350 nM | 1800 nM |
| O=C(NC1CC1)c1ccccc1NCc1ccc(-c2noc(C(F)(F)F)n2)cn1 [Example 446, N-cyclopropyl-2-[({5-[5-(trifluoromethyl)-1,2,4-oxadiazol-3-yl]pyridin-2-yl}methyl)amino]benzamide] | 240 nM | 1600 nM |
| O=C1OC[C@@H](c2ccccc2)N1c1ccc(-c2noc(C(F)(F)F)n2)c(F)c1 [Example 332, (4R)-3-{3-fluoro-4-[5-(trifluoromethyl)-1,2,4-oxadiazol-3-yl]phenyl}-4-phenyl-1,3-oxazolidin-2-one] | 4500 nM | 4500 nM |
| CC(C(=O)N(Cc1ccc(-c2noc(C(F)(F)F)n2)cc1)c1cccc(C(F)(F)F)c1)n1cncn1 (racemic) [Example 66, 2-(1H-1,2,4-triazol-1-yl)-N-(4-(5-(trifluoromethyl)-1,2,4-oxadiazol-3-yl)benzyl)-N-(3-(trifluoromethyl)phenyl)propanamide] | 720 nM | 1900 nM |
| CN1CCN(c2ccc(-c3noc(C(F)(F)F)n3)cn2)[C@@H](c2ccccc2)C1 [Example 134, (S)-3-(6-(4-methyl-2-phenylpiperazin-1-yl)pyridin-3-yl)-5-(trifluoromethyl)-1,2,4-oxadiazole] | 360 nM | 2100 nM |
| FC(F)(F)c1nc(-c2ccc(N3CCCCC3c3cccnc3)nc2)no1 (racemic) [Example 157, 3-(6-(2-(pyridin-3-yl)piperidin-1-yl)pyridin-3-yl)-5-(trifluoromethyl)-1,2,4-oxadiazole] |  | 3300 nM |
| O=C1CCCC(c2ccccc2)N1c1ccc(-c2noc(C(F)(F)F)n2)cn1 (stereo not drawn) [Example 128, 6-phenyl-1-(5-(5-(trifluoromethyl)-1,2,4-oxadiazol-3-yl)pyridin-2-yl)piperidin-2-one] | 2900 nM | 5100 nM |
| O=C1NCCN(c2ccc(-c3noc(C(F)(F)F)n3)cn2)C1c1cccc(F)c1 (stereo not drawn) [Example 153, 3-(3-fluorophenyl)-4-(5-(5-(trifluoromethyl)-1,2,4-oxadiazol-3-yl)pyridin-2-yl)piperazin-2-one] | 124 nM | 280 nM |
| CN1Cc2ccc(NCc3ccc(-c4noc(C(F)(F)F)n4)cn3)cc2C1=O [Example 356, 2-methyl-6-[({5-[5-(trifluoromethyl)-1,2,4-oxadiazol-3-yl]pyridin-2-yl}methyl)amino]-2,3-dihydro-1H-isoindol-1-one] | 280 nM | 520 nM |
| FC(F)(F)c1nc(-c2ccc(CNc3cnccn3)cc2)no1 [Example 417, N-{4-[5-(trifluoromethyl)-1,2,4-oxadiazol-3-yl]benzyl}pyrazin-2-amine] | 2600 nM | 1900 nM |
| O=C([C@@H]1CCC(=O)N1c1cc(F)c(-c2noc(C(F)(F)F)n2)cc1F)N1CCc2ccccc2C1 [Example 335, (5S)-1-{2,5-difluoro-4-[5-(trifluoromethyl)-1,2,4-oxadiazol-3-yl]phenyl}-5-(3,4-dihydroisoquinolin-2(1H)-ylcarbonyl)pyrrolidin-2-one] | 1200 nM | 7400 nM |
| Cc1cccc(CCOc2cc(-c3noc(C(F)(F)F)n3)ccn2)n1 [Example 139, 3-(2-(2-(6-methylpyridin-2-yl)ethoxy)pyridin-4-yl)-5-(trifluoromethyl)-1,2,4-oxadiazole] | 3400 nM | 4600 nM |
| FC(F)(F)c1cccc(C2COCCN2c2ccc(-c3noc(C(F)(F)F)n3)cn2)c1 (racemic) [Example 146, 4-(5-(5-(trifluoromethyl)-1,2,4-oxadiazol-3-yl)pyridin-2-yl)-3-(3-(trifluoromethyl)phenyl)morpholine] |  | 20000 nM |
| O=C([C@@H]1CCC(=O)N1c1cc(F)c(-c2noc(C(F)(F)F)n2)cc1F)N1CCCc2ccccc21 [Example 334, (5S)-1-{2,5-difluoro-4-[5-(trifluoromethyl)-1,2,4-oxadiazol-3-yl]phenyl}-5-(3,4-dihydroquinolin-1(2H)-ylcarbonyl)pyrrolidin-2-one] | 4400 nM | 19000 nM |
| FC(F)(F)c1nc(-c2ccc(CNc3cnccn3)nc2)no1 [Example 368, N-({5-[5-(trifluoromethyl)-1,2,4-oxadiazol-3-yl]pyridin-2-yl}methyl)pyrazin-2-amine] | 1000 nM | 890 nM |
| Cc1noc([C@H]2CCCCN2c2ccc(-c3noc(C(F)(F)F)n3)cn2)n1 [Example 138, (R)-3-methyl-5-(1-(5-(5-(trifluoromethyl)-1,2,4-oxadiazol-3-yl)pyridin-2-yl)piperidin-2-yl)-1,2,4-oxadiazole] |  | 1200 nM |
| CC(=O)N1CCC(CNCc2ccc(-c3noc(C(F)(F)F)n3)cn2)CC1 [Example 455, 1-(1-acetylpiperidin-4-yl)-N-({5-[5-(trifluoromethyl)-1,2,4-oxadiazol-3-yl]pyridin-2-yl}methyl)methanamine] |  | 3800 nM |
| FC(F)(F)c1nc(-c2ccc(N3CCCC3c3cccnc3)nc2)no1 (racemic) [Example 151, 3-(6-(2-(pyridin-3-yl)pyrrolidin-1-yl)pyridin-3-yl)-5-(trifluoromethyl)-1,2,4-oxadiazole] |  | 1600 nM |

| SMILES | IC50 (HDAC1) | IC50 (HDAC8) |
| --- | --- | --- |
| OCC1CC(c2ccccc2)N(c2ccc(-c3noc(C(F)(F)F)n3)cn2)C1 (racemic) [Example 152, (5-phenyl-1-(5-(5-(trifluoromethyl)-1,2,4-oxadiazol-3-yl)pyridin-2-yl)pyrrolidin-3-yl)methanol] |  | 840 nM |
| FC(F)(F)c1nc(-c2ccc(CNCC3CN(Cc4ccccc4)CCO3)nc2)no1 (racemic) [Example 453, 1-(4-benzylmorpholin-2-yl)-N-({5-[5-(trifluoromethyl)-1,2,4-oxadiazol-3-yl]pyridin-2-yl}methyl)methanamine] |  | 1900 nM |
| CCOC(=O)N1CCN(c2ccc(-c3noc(C(F)(F)F)n3)cn2)C(c2ccccc2)C1 (racemic) [Example 159, ethyl 3-phenyl-4-(5-(5-(trifluoromethyl)-1,2,4-oxadiazol-3-yl)pyridin-2-yl)piperazine-1-carboxylate] |  | 4000 nM |
| Cc1cc(=O)n2c(n1)CN(c1ccc(-c3noc(C(F)(F)F)n3)cn1)CC2 [Example 158, 2-methyl-8-(5-(5-(trifluoromethyl)-1,2,4-oxadiazol-3-yl)pyridin-2-yl)-6,7,8,9-tetrahydro-4H-pyrazino[1,2-a]pyrimidin-4-one] |  | 750 nM |
| FC(F)(F)c1nc(-c2ccc(N3CCCC3c3ccncc3)nc2)no1 (racemic) [Example 150, 3-(6-(2-(pyridin-4-yl)pyrrolidin-1-yl)pyridin-3-yl)-5-(trifluoromethyl)-1,2,4-oxadiazole] |  | 1800 nM |
| Cc1nonc1C1CCCN1c1ccc(-c2noc(C(F)(F)F)n2)cn1 (racemic) [Example 155, 3-(6-(2-(4-methyl-1,2,5-oxadiazol-3-yl)pyrrolidin-1-yl)pyridin-3-yl)-5-(trifluoromethyl)-1,2,4-oxadiazole] |  | 1800 nM |
| FC(F)(F)c1nc(-c2ccc(N3CCCCC3c3ccccn3)nc2)no1 (racemic) [Example 147, 3-(6-(2-(pyridin-2-yl)piperidin-1-yl)pyridin-3-yl)-5-(trifluoromethyl)-1,2,4-oxadiazole] |  | 3200 nM |
| FC(F)(F)c1nc(-c2ccc(CNCC3CN(c4ccccc4)CCO3)nc2)no1 (racemic) [Example 454, 1-(4-phenylmorpholin-2-yl)-N-({5-[5-(trifluoromethyl)-1,2,4-oxadiazol-3-yl]pyridin-2-yl}methyl)methanamine] |  | 1700 nM |
| O=C(Nc1ccccc1)c1cccc(NCc2ccc(-c3noc(C(F)(F)F)n3)cn2)c1 [Example 440, N-phenyl-3-[({5-[5-(trifluoromethyl)-1,2,4-oxadiazol-3-yl]pyridin-2-yl}methyl)amino]benzamide] |  | 280 nM |
| FC(F)(F)c1nc(-c2ccc(N3CCCC3c3ccccn3)nc2)no1 (racemic) [Example 154, 3-(6-(2-(pyridin-2-yl)pyrrolidin-1-yl)pyridin-3-yl)-5-(trifluoromethyl)-1,2,4-oxadiazole] |  | 3400 nM |
| FC(F)(F)c1nc(-c2ccc(CNc3cc[nH]n3)nc2)no1 [Example 432, N-({5-[5-(trifluoromethyl)-1,2,4-oxadiazol-3-yl]pyridin-2-yl}methyl)-1H-pyrazol-3-amine] |  | 1300 nM |
| FC(F)(F)c1nc(-c2ccc(N3CCOC[C@H]3c3ccccc3)nc2)no1 [Example 144, (R)-3-phenyl-4-(5-(5-(trifluoromethyl)-1,2,4-oxadiazol-3-yl)pyridin-2-yl)morpholine] |  | 2700 nM |
| O=C(c1cccc(NCc2ccc(-c3noc(C(F)(F)F)n3)cn2)c1)N1CCCC1 [Example 439, 3-(pyrrolidin-1-ylcarbonyl)-N-({5-[5-(trifluoromethyl)-1,2,4-oxadiazol-3-yl]pyridin-2-yl}methyl)aniline] |  | 1400 nM |
| O=C1CCc2ccc(F)cc2N1Cc1ccc(-c2noc(C(F)(F)F)n2)cc1 [Example 318, 7-fluoro-1-{4-[5-(trifluoromethyl)-1,2,4-oxadiazol-3-yl]benzyl}-3,4-dihydroquinolin-2(1H)-one] |  | 1800 nM |
| O=C(NCc1ccccc1)c1ccccc1NCc1ccc(-c2noc(C(F)(F)F)n2)cn1 [Example 448, N-benzyl-2-[({5-[5-(trifluoromethyl)-1,2,4-oxadiazol-3-yl]pyridin-2-yl}methyl)amino]benzamide] |  | 530 nM |
| O=C1NCCN(c2ccc(-c3noc(C(F)(F)F)n3)cn2)C1c1cccc(F)c1 (racemic) [Example 132, 3-(3-fluorophenyl)-4-(5-(5-(trifluoromethyl)-1,2,4-oxadiazol-3-yl)pyridin-2-yl)piperazin-2-one] |  | 630 nM |
| O=C1CCC(c2ccc(-c3noc(C(F)(F)F)n3)cc2)N1c1cccc(F)c1 (racemic) [Example 325, 1-(3-fluorophenyl)-5-{4-[5-(trifluoromethyl)-1,2,4-oxadiazol-3-yl]phenyl}pyrrolidin-2-one] | 2500 nM |  |
